Data set [1] is described as follows: plasma concentration during oral administration in drinking water. Type of data set: in vivo. The following applies: LDLr-null (LDLr−/−), mouse, orally in the drinking water at 25 mg/kg/day, limit of detection 1 μM. An excerpt:
We continued oral administration of the peptide to the animals for an additional eight weeks (ten weeks total for the study) to determine how the peptide would impact the development of atherosclerotic lesions (see FIG. 6 for treatment schedule). At the completion of the 10-week study, the total plasma cholesterol level in the peptide-treated animals was 30% lower than in control animals (FIG. 2c). Moreover, an analysis of the whole aorta lesion area and the aortic sinus lesion volume indicated reductions in atherosclerotic lesions of 26% and 50%, respectively (FIGS. 2c, d). […] When administered orally in the drinking water at 25 mg/kg/day, the plasma concentration of compound 1 was below the 1 μM limit of detection (data not shown).
LC-MS SIM quantitation of peptide concentration: Cyclic peptide concentrations were quantified by using reverse-phase HPLC coupled with mass spectrometry. The electrospray ionization mass spectrometry measurements were carried out in the positive ionization mode using a single quadrupole mass spectrometer (Hewlett Packard HP 1100 MSD series). […] For quantitative calibration, standard curves were established using mouse EDTA-anticoagulated plasma spiked with various concentrations of the peptide. […]

The next data set has as its system HDL in human plasma. As to the kind of experiment: pre-beta HDL ELISA assay: remodeling HDL in human plasma in vitro. Type of data set: biochemical. The following applies: pre-beta HDL ELISA. As to the method:
First, various cyclic peptides, including the majority of compounds shown in FIG. 2, were assessed for activities for remodeling HDL in human plasma in vitro. Unlike western blot which was used to generate data shown in FIG. 2, here a pre-beta HDL ELISA assay was used to measure pre-beta HDL levels. Results from the assay are shown in Table 1, which lists the peptides in the order of their activities in remodeling HDL.

The subject of a further data set is LDLr-null mice. As to the kind of experiment: evaluation of atherosclerosis: whole aorta lesion area and aortic sinus lesion volume. Type of data set: in vivo, mouse. The following applies: 10 weeks. An excerpt: In vivo efficacy study: LDL receptor-null (LDLr^−/−) mice on a C57BL/6J background were initially purchased from Jackson Laboratories (Bar Harbor, Me.) and were bred in house. The mice were weaned at 4 weeks of age and were fed ad libitum a standard chow diet (Harlan Teklad 7019) until they were 10-weeks old, when they were switched to a high-fat Western diet (WD) containing 15.8% (wt/wt) fat, 1.25% (wt/wt) cholesterol, and no cholate (Harlan Teklad 94059). At the time that the WD was started, the test cyclic peptide was added to the drinking water at a high dose of 180 μM (200 μg/mL) or a low dose of 18 μM (20 μg/mL) and the mice (female, n=8 per dosing group) were continued on WD for 10 weeks. The lyophilized peptide was easily dissolved in PBS (pH 7.4) containing 1% sucrose, resulting in a clear solution. The drinking water solution was replaced with fresh solution every day. A control group of eight mice (female, n=8) were fed WD with vehicle (PBS with 1% sucrose) drinking water. The mice consumed approximately 2.5 mL of water per day per mouse, and there was no significant difference in water or food consumption between groups.
Evaluation of atherosclerosis: Atherosclerotic lesion severity was assessed in the aortae as previously described in Mullick et al., J. Clin. Invest. 115, 3149-3156, 2005. Briefly, at euthanasia, animals were perfused with PBS, followed by 4% formaldehyde (10% UltraPure EM Grade from Polysciences diluted in PBS, pH 7.2). For en face analysis, the entire mouse aorta was dissected from the proximal ascending aorta to the bifurcation of the iliac artery by using a dissecting microscope. Adventitial fat was removed, and the aorta was opened longitudinally, pinned flat onto black dissecting wax, stained with Sudan IV, and photographed at a fixed magnification. The photographs were digitized, and total aortic areas and lesion areas were calculated by using Adobe Photoshop version CS4, Chromatica V, and NIH Scion Image software (http://rsb.info.nih.gov/nih-image/Default.html). The results were reported as a percentage of the total aortic area that contained lesions.
As a second assessment of atherosclerosis, lesions of the aortic root (heart sinus) were analyzed. Utilizing stereological principles, lesion volume was estimated across a fixed distance of the aortic sinus. […] Lesion areas found only within the valve cusp were measured. […] Lesion volume was calculated from an integration of the measured cross-sectional areas. […]
Other than their in vivo cholesterol reducing activities, several peptides were also examined for ability to inhibit development of atherosclerotic legions in vivo. […] All charts in the figure are shown as a scatter plot along with mean±SD. p values were determined by the one-way ANOVA test with a post hoc Tukey-Kramer test.

[2] abbreviates: oral ~25 mg/kg/day, LDLr-null mice, high-fat diet, vs control.

Experimental findings from patent US10092620B2, “Uses of cyclic peptides for treating and preventing atherosclerosis” (THE SCRIPPS RESEARCH INSTITUTE, priority 2013, dated 2018) are described below.

Non-standard residues stand in square brackets, D forms with d. Residues, ends and D or L forms follow the SMILES beside them. Where only a bound is given, the exact number is not on record here.

`CC(C)C[C@@H]1NC(=O)[C@@H](Cc2c[nH]c3ccccc23)NC(=O)[C@H](CCCNC(=N)N)NC(=O)[C@@H](CCC(=O)O)NC(=O)[C@H](CCC(N)=O)NC(=O)[C@@H](CCC(=O)O)NC(=O)[C@H](CCCNC(=N)N)NC(=O)[C@@H](Cc2c[nH]c3ccccc23)NC1=O` [SEQ ID NO:1, c[wLwReQeR]] (cyclo([dW]L[dW]R[dE]Q[dE]R)) had a level at time molar in data set [1] of less than 1000 nM. In the data set with HDL in human plasma, the “Pre-beta HDL generated (normalized level)” value is on record as 0.88. Besides, the “atherosclerotic lesions vs control (in words)” value with LDLr-null mice (10-fold lower dose in drinking water) is reported as “no significant differences”. In the data set with LDLr-null mice (setting [2]), the “reduction in aortic sinus lesion volume” value was found to be 50% and the “reduction in whole aorta lesion area” value is recorded as 26%.
